Laboratory results reported in ChEMBL document CHEMBL1201862, “PubChem BioAssay data set” (2004).
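Interpolation was linear, between the two tested concentrations surrounding the appropriate level; five concentrations were tested over 48 hours in 96-well plates. At the GI50, growth is halved.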 The source made the active and inactive calls. Rule as the data show it: active = GI50 up to about 1.1 µM and inactive = higher.

Experiments:
Test in all cases: NCI anticancer screen, dose series, 48 h
LXFL 529 = test system: LXFL 529
MDA-N = test system: MDA-N
DLD-1 = test system: DLD-1
MDA-MB-231 = test system: MDA-MB-231
Hs-578T = test system: Hs-578T
MDA-MB-435 = test system: MDA-MB-435
XF498 = test system: XF498
HOP-18 = test system: HOP-18

CC1=NN(C(=O)c2ccccc2O)C(=O)/C1=C/c1ccc(O)cc1
GI50 (LXFL 529): 0.141 µM (active)
GI50 (MDA-N): 0.316 µM (active)
GI50 (DLD-1): 0.151 µM (active)
GI50 (MDA-MB-231): 58.9 µM (inactive)

O=C1c2cccc3cccc(c23)C(=O)N1O
GI50 (Hs-578T): 53 µM (inactive)
GI50 (MDA-N): 91.6 µM (inactive)
GI50 (MDA-MB-435): > 100 µM (inactive)
GI50 (MDA-MB-231): > 100 µM (inactive)

C/C(=N\NC(=O)c1ccncc1)c1sc(-n2nc(-c3ccccc3)cc2-c2ccccc2)nc1C
GI50 (Hs-578T): > 74.3 µM (inactive)
GI50 (MDA-N): > 100 µM (inactive)
GI50 (MDA-MB-435): > 31.6 µM (inactive)
GI50 (MDA-MB-231): > 63 µM (inactive)

CNC(=O)C(C)C1CCC2(C)C=CC(=O)C(C)=C2C1O (centres undefined)
GI50 (XF498): > 100 µM (inactive)
GI50 (DLD-1): > 100 µM (inactive)

Fc1ccc(C(OCCN2CCN(CCCc3ccccc3)CC2)c2ccc(F)cc2)cc1
GI50 (Hs-578T): 3.26 µM (inactive)
GI50 (MDA-N): 4.06 µM (inactive)
GI50 (MDA-MB-435): 3.63 µM (inactive)
GI50 (MDA-MB-231): 3.15 µM (inactive)

Nc1nc(Cl)cc(NCC2(CO)CC(c3ccccc3)C2)n1 (centres undefined)
GI50 (Hs-578T): 19.2 µM (inactive)
GI50 (MDA-N): 31 µM (inactive)
GI50 (MDA-MB-435): 29.9 µM (inactive)
GI50 (MDA-MB-231): 26.4 µM (inactive)

CN(C)CN1C(=O)/C(=N\n2c(S)nnc2-c2ccncc2)c2ccccc21
GI50 (Hs-578T): 42.5 µM (inactive)
GI50 (MDA-N): 16.7 µM (inactive)
GI50 (MDA-MB-435): 15.8 µM (inactive)
GI50 (MDA-MB-231): > 100 µM (inactive)

N/C(=N\c1c([N+](=O)[O-])cnc2ccccc12)N1CCOCC1
GI50 (Hs-578T): > 100 µM (inactive)
GI50 (MDA-N): > 100 µM (inactive)
GI50 (MDA-MB-435): > 100 µM (inactive)
GI50 (MDA-MB-231): > 100 µM (inactive)

CC(=O)c1cc2sc3ccccc3c2[nH]1
GI50 (MDA-N): > 100 µM (inactive)
GI50 (MDA-MB-435): > 100 µM (inactive)
GI50 (MDA-MB-231): > 100 µM (inactive)

CC(C)C1(O)C(=O)N(c2c(F)c(F)c(F)c(F)c2F)C(=S)N1CCSc1ccccc1 (centres undefined)
GI50 (Hs-578T): 22.6 µM (inactive)
GI50 (MDA-N): 17.2 µM (inactive)
GI50 (MDA-MB-435): 18.2 µM (inactive)
GI50 (MDA-MB-231): 13.1 µM (inactive)

O=C1c2ccccc2C(=O)c2c1sc1nc3ccccc3n21
GI50 (Hs-578T): 0.0239 µM (active)
GI50 (MDA-N): 1.79 µM (inactive)
GI50 (MDA-MB-435): 2.11 µM (inactive)
GI50 (MDA-MB-231): 2.02 µM (inactive)

Cc1ccc(/C=C2\Cc3c(C)cc(C)cc3C2=O)c(C(=O)O)c1
GI50 (Hs-578T): 35.2 µM (inactive)
GI50 (MDA-N): 89.3 µM (inactive)
GI50 (MDA-MB-435): 31.6 µM (inactive)

COc1ccc(C(=O)/C=C/S/C(=N/C#N)SC)cc1
GI50 (Hs-578T): 30.9 µM (inactive)
GI50 (MDA-MB-435): 21.5 µM (inactive)
GI50 (MDA-MB-231): 13.7 µM (inactive)

COc1cc(OC)nc(-n2c(N)c(C(=O)O)c3ccc([N+](=O)[O-])cc3c2=O)n1
GI50 (Hs-578T): > 100 µM (inactive)
GI50 (MDA-N): > 100 µM (inactive)
GI50 (MDA-MB-435): > 100 µM (inactive)
GI50 (MDA-MB-231): > 100 µM (inactive)

CCOC(=O)/C=C(\C(=O)OCC)n1ccc(=O)n(Cc2cnnn2CCCCOC(C)=O)c1=O
GI50 (Hs-578T): 16.3 µM (inactive)
GI50 (MDA-N): 22.5 µM (inactive)
GI50 (MDA-MB-435): 6.85 µM (inactive)
GI50 (MDA-MB-231): 15.2 µM (inactive)

O=c1ccn(C2OC(COC3CCCCO3)C(OC3CCCCO3)C2OC2CCCCO2)c(=O)n1-c1ccccc1 (centres undefined)
GI50 (Hs-578T): > 100 µM (inactive)
GI50 (MDA-N): > 100 µM (inactive)
GI50 (MDA-MB-435): > 100 µM (inactive)
GI50 (MDA-MB-231): > 100 µM (inactive)

COc1ccc(/C=C(\C2=NC(=O)CS2)c2nc3ccccc3[nH]2)cc1
GI50 (LXFL 529): 60.7 µM (inactive)
GI50 (XF498): 14.5 µM (inactive)
GI50 (DLD-1): > 100 µM (inactive)

COc1cccc(C(=O)C#Cc2cnc(OC)nc2OC)c1
GI50 (Hs-578T): 7.66 µM (inactive)
GI50 (MDA-N): 1.49 µM (inactive)
GI50 (MDA-MB-435): 1.86 µM (inactive)
GI50 (MDA-MB-231): 3.41 µM (inactive)

Cn1c2ccccc2c2ccc3c(c21)C(=O)C(c1ccccc1)=CC3=O
GI50 (LXFL 529): 16.1 µM (inactive)
GI50 (DLD-1): 17.9 µM (inactive)
GI50 (HOP-18): 0.0957 µM (active)

CCCCNC(=O)OCCN=C1c2ccccc2C(Br)C(Br)c2ccccc21 (centres undefined)
GI50 (Hs-578T): 36.1 µM (inactive)
GI50 (MDA-N): 15.2 µM (inactive)
GI50 (MDA-MB-435): 21 µM (inactive)
GI50 (MDA-MB-231): 29.4 µM (inactive)

O=C(Nc1ccn(C2CC(O)C(COC(c3ccccc3)(c3ccccc3)c3ccccc3)O2)c(=O)n1)c1ccccc1 (centres undefined)
GI50 (Hs-578T): 2.31 µM (inactive)
GI50 (MDA-N): 1.96 µM (inactive)
GI50 (MDA-MB-435): 2.56 µM (inactive)
GI50 (MDA-MB-231): 3.05 µM (inactive)

O=C(CCC(=O)OCC1OC(O)(CC2OC(CO)C(O)C(O)C2O)C(O)C1O)OCc1ccccc1 (centres undefined)
GI50 (Hs-578T): > 100 µM (inactive)
GI50 (MDA-N): > 100 µM (inactive)
GI50 (MDA-MB-435): > 100 µM (inactive)
GI50 (MDA-MB-231): > 100 µM (inactive)

OCC1=C[C@@](COCc2ccccc2)(OCc2ccccc2)[C@@H](OCc2ccccc2)[C@@H]1OCc1ccccc1
GI50 (Hs-578T): 21.9 µM (inactive)
GI50 (MDA-N): 17.2 µM (inactive)
GI50 (MDA-MB-435): 6.64 µM (inactive)
GI50 (MDA-MB-231): 9.08 µM (inactive)

COc1ccc2c(c1)[n+]([O-])c(-c1cccc(Cl)c1)c(N)[n+]2[O-]
GI50 (XF498): > 100 µM (inactive)
GI50 (DLD-1): 38.2 µM (inactive)
GI50 (HOP-18): > 100 µM (inactive)

O=c1cnnc2sc(=S)[nH]n12
GI50 (Hs-578T): 2.22 µM (inactive)
GI50 (MDA-N): 36.2 µM (inactive)
GI50 (MDA-MB-435): 24.7 µM (inactive)

COc1ccc(/C=C2/SC(c3ccccc3)N(NC(=O)CCCCCCCCC(=O)NN3C(=O)/C(=C\c4ccc(OC)c(OC)c4)SC3c3ccccc3)C2=O)cc1OC (centres undefined)
GI50 (MDA-N): 35.2 µM (inactive)
GI50 (MDA-MB-435): 38.5 µM (inactive)
GI50 (MDA-MB-231): 74.6 µM (inactive)
